Assay results reported in patent US20130064899A1, “SYNERGISTIC BIOCIDE COMPOSITION CONTAINING AT LEAST THREE BIOCIDE COMPONENTS” (THOR GMBH, priority 2010, published 2013).
Marks after values point to notes of the source that are not given here.

Assays:
[1] = system: Candida lipolytica (DSM 3286); assay: Minimum inhibitory concentration and synergy index in Sabouraud maltose broth, Candida lipolytica; type: cell-based; conditions: 72 hours at 25° C.; for SI (synergy index = Qa/QA + Qb/QB): below 1 = synergism
Protocol: (§1) A test was made of the synergism of a combination of BIT, zinc pyrithione or sodium pyrithione, and silver. The test organisms used were the yeasts Candida albicans (DSM 1386) and Candida lipolytica (DSM 3286). For the test, mixtures with different compositions of BIT, zinc pyrithione or sodium pyrithione, and silver were prepared and were tested for their activity on Candida albicans and Candida lipolytica.
(§2) The individual actives or actives mixtures were mixed in serial concentration series with nutrient broth (Sabouraud maltose broth) and inoculated with the respective test organisms. The cell density in the overall batch was in each case 10^6 microbes per ml.
(§3) The incubation time was 72 hours at 25° C. on a shaker at 120 rpm. This was followed by inspection for growth of Candida albicans and Candida lipolytica.
(§4) This method was used to determine the minimum inhibitory concentrations (MICS) of the combination Ag+BIT and ZnPy or NaPy, with Ag and BIT always being present in a 1:20 ratio. The MIC is the concentration at which there is no longer any hazing of the nutrient solution.
(§5) The synergism which occurred was represented numerically by calculation of the synergy index (SI). The calculation was made according to the common method of F. C. Kull et al., Applied Microbiology, vol. 9 (1961), p. 538. The SI variant was given by the following formula:
Synergy index SI=Qa/QA+Qb/QB
When this formula is applied to the BIT+pyrithione+silver biocide system tested here, the variables in the formula have the following definition: • Qa=Concentration of Ag+BIT in the Ag+BIT and ZnPy mixture • QA=Concentration of Ag+BIT as sole biocide • Qb=Concentration of ZnPy in the Ag+BIT and ZnPy mixture • QB=Concentration of ZnPy as sole biocide
If the synergy index has a value of more than 1, this means that antagonism is present. If the synergy index adopts a value of 1, this means that the two biocides have an additive effect.

[2] = system: Candida albicans (DSM 1386); assay: Minimum inhibitory concentration and synergy index in Sabouraud maltose broth, Candida albicans; type: cell-based; conditions: 72 hours at 25° C.
Protocol: as §1, §2, §3, §4, §5
Synergy index SI=Qa/QA+Qb/QB […]

[3] = concentration of ZnPy in the Ag + BIT and ZnPy mixture, *2 = QB, ZnPy as sole biocide

Molecule | SI (synergy index = Qa/QA + Qb/QB) ([1]; NaPy series) | MIC Qb (NaPy) ([1]; concentration of NaPy in the Ag + BIT and NaPy mixture, *2 = QB, NaPy as sole biocide) | SI (synergy index = Qa/QA + Qb/QB) ([2]; below 1 = synergism) | MIC Qb (ZnPy) [2, 3] | SI (synergy index = Qa/QA + Qb/QB) ([1]; ZnPy series) | MIC Qb (ZnPy) [1, 3]
[Na+].[O-][n+]1ccccc1[S-] [NaPy, sodium pyrithione] | 1.00 | 30*^2 ppm |  |  |  | 
zinc pyrithione [ZnPy] |  |  | 1.00 | 7.5*^2 ppm | 1.00 | 7.5*^2 ppm
